Here are results for four compounds from patent EP0488079A1, “Oxadiazolylmethylpurines, their preparation, and their pharmaceutical use” (CHINOIN Gyògyszer és Vegyészeti Termékek Gyára RT., priority 1990, dated 1992).

Data set [1] deals with durch einen 15 %-igen Citronensäurespray hervorgerufenem Husten. The experiment in a line: Antitussive effect, cough induced in guinea pigs by 15 % citric acid spray. The format is in vivo, Meerschweinchen. The conditions noted are these: Cavia porcellus, po, 1 h, read-out: ED₅₀ (±S.D.). An excerpt:
Die hustenlindernde Wirkung wurde auch an Meerschweinchen untersucht, an denen die Dämpfung des durch einen 15 %-igen Citronensäurespray ausgelösten Hustens bestimmt wurde (I. Erdély, L. Tardos, Arzneim. Forsch. 1966, 617). Die hustenlindernden Mittel wurden eine Stunde vor der Messung oral verabreicht. Auch in diesem Test erwies sich die Verbindung Ia als starkes Hustenlinderungsmittel; ihre Wirkung übertraf die der Referenzsubstanzen (Tabelle 2). Tabelle 2

In data set [2] the test system is durch elektrische Reizung des Nervus laryngeus Husten. In words: Antitussive effect, cough induced in cats by electrical stimulation of the Nervus laryngeus. The format is in vivo, Katzen. The conditions noted are these: for ED50: Felis catus, po, cough by electrical stimulation, p.o., p <0,001, read-out: ED₅₀ (±S.D.). An excerpt: Die hustenlindernde Wirkung der Verbindung Ia wurde an Katzen untersucht, an denen durch elektrische Reizung des Nervus laryngeus Husten ausgelöst worden war (R. Domenjoz, Arch. Exp. Path. 1952, 19). Die zu untersuchenden Verbindungen wurden i.v. beziehungsweise mit Schlundsonde p.o. verabreicht. […] Tabelle 1

For data set [3], the system named is Mäusen. The experiment in a line: Acute oral toxicity in mice. Particulars: p.o.
In data set [4] the test system is durch Histamin ausgelösten Anstiegs des Widerstands der Luftwege. In words: Inhibition of the histamine-induced rise in airway resistance in cats. The format is in vivo, Katzen. The conditions noted are these: for Wirkungsmaximum: 3 µg/kg histamine i.v., 4 mg/kg substance intraduodenal, measured minute 10 to 120; for rel.Wirkungsstärke: relative to Theophyllin = 1,00. An excerpt: Die Hemmung des durch Histamin ausgelösten Anstiegs des Widerstands der Luftwege wurde an Katzen untersucht (M.A. Wassermann, D.W. Du Charme, Prostaglandins, 1977, 255).
Minute gemessen. […] Tabelle 4

Data set [5] relates to isolierten glatten Luftröhrenmuskel des Meerschweinchens. In words: Inhibition of the constrictor effect of histamine on isolated tracheal smooth muscle. The format is cell-based, Meerschweinchen. Particulars: against histamine, isolated guinea pig tracheal smooth muscle; for EC50: cumulative dose series, read-out: p d 2 (converted). An excerpt: Am glatten Luftröhrenmuskel des Meerschweinchens ist die Wirkung der Verbindung Ia der des Theophyllins ähnlich, wenn die Wirkung gegen Histamin in einer kumulativen Dosisreihe untersucht wird (Tabelle 3). Tabelle 3

For data set [6], the system named is Mäusen. The conditions noted are these: in vivo.
For data set [7], the system named is sensibilisierten Meerschweinchen. In words: Experimental asthma (anaphylaxis): airway resistance in ovalbumin-sensitised guinea pigs after intratracheal ovalbumin. The format is in vivo. The conditions noted are these: for δ (Änderung des Beatmungswiderstands): deviation from own value after dosing. The procedure:
Die Meerschweinchen wurden durch eine einmalige Gabe von 1 µg/kg Ovalbumin i.v. sensibilisiert (Andersson, Brattsand, Br. J. Pharmacol. 1982, 139) und bekamen nach 40 Tagen die zu untersuchenden Verbindungen in einer Dosis von 10 mg/kg i.v. Die narkotisierten, muskelrelaxierten und künstlich beatmeten Tiere erhielten 3 mg/kg Ovalbumin intratracheal, und zu unterschiedlichen Zeitpunkten wurde gemessen, wie stark die zu untersuchenden Verbindungen den Anstieg des Widerstandes der Luftwege zu kompensieren vermochten.
Nach Narkose Präparation und Verabreichung eines Muskelrelaxans Beatmung 1. Messung: 5 min nach Injizierung von 10 mg/kg Wirkstoff, dann intratracheale Provokation (Minute 0) 2. Messung: 3 min nach intratrachealer Provokation 3. Messung: 6 min nach intratrachealer Provokation 4. Messung: 12 min nach intratrachealer Provokation 5. Messung: 24 min nach intratrachealer Provokation.
Die Beatmung erfolgte mit positivem Druck bei einer Frequenz von 90/min und einem Volumen von 3 ml.
Die Kontrollgruppe erhielt physiologische Kochsalzlösung. Der Wert δ ist die Abweichung von dem eigenen, nach der Verabreichung der Dosis von 10 mg/kg Wirkstoff gemessenen Wert (Eigenkontrolle).

The test system of data set [8] is Zentralnervensystem und das Herz. In words: Respiratory depression and side effects on central nervous system and heart. Format: in vivo.
The next data set in a line: Water solubility. Format: physicochemical.
A short description of data set [9]: Absorption after oral administration. The format is in vivo. The conditions noted are these: without salt formation.
Setting [10] is: 10 mg/kg i.v., 3 min after intratracheal ovalbumin.
The mark [11] stands for this setting: 10 mg/kg i.v., 6 min after intratracheal ovalbumin.
Setting [12] is: 10 mg/kg i.v., 12 min after intratracheal ovalbumin.
The mark [13] stands for this setting: 10 mg/kg i.v., 24 min after intratracheal ovalbumin.

Like-named read-outs stand apart in the source and are kept apart here.

`COc1ccc2c3c1O[C@H]1[C@@H](O)C=C[C@H]4[C@@H](C2)N(C)CC[C@@]341.Cl` [Codeïn HCl]: the ED50 in data set [1] amounted to 12.8 mg/kg; in [2], 4.33 mg/kg. The DL₅₀ in the data set with Mäusen [3] was 359,2 mg/kg.
`COc1ccc2c(c1)[C@]13CCCC[C@@H]1[C@H](C2)N(C)CC3` [Dextromethorphan HBr]: the ED50 in data set [1] stood at 5.26 mg/kg. For the same compound, in the data set with Mäusen [3], the DL₅₀ is recorded as 165,9 mg/kg.
Turning to `Cn1c(=O)c2[nH]cnc2n(C)c1=O` [Theophyllin, reference compound], the Wirkungsmaximum in data set [4] is reported as 15,7. Also, the rel.Wirkungsstärke in data set [4] (4 mg/kg intraduodenal) is 1,00. In addition, in data set [5], the EC50 is 4.17 µM and the Emax is 44%.
With `Cc1nc(Cn2cnc3[nH]c(=O)n(C)c(=O)c32)no1` [Verbindung Ia, 1-Methyl-7-(5-methyl-1,2,4-oxadiazol-3-yl)-methyl-3,7-dihydro-3H-purin-2,6-dion], the ED50 in data set [1] (guinea pigs, 15 % citric acid spray, one hour after p.o. administration, p <0,001) is 3.04 mg/kg; in [2], 3.74 mg/kg. In the data set on Mäusen [6], the “therapeutischer Index” value was “um mehr als eine Größenordnung besser als der der Referenzsubstanzen”. Further, the DL₅₀ in the data set on Mäusen [6] (mouse, po) is more than 2000 mg/kg. The “hustenlindernde Wirkung” value in data set [2] (i.v. and p.o.) is given as “bedeutende hustenlindernde Wirkung”. Moreover, the “Zeitdauer der Wirkung” value in data set [2] (i.v. and p.o., compared with reference substances) is listed as “länger als die der Referenzsubstanzen”. Moreover, the “Beatmungswiderstand R” value in data set [7] (setting [10]) is recorded as 9,21±0,84 Pa/ml/s; in data set [7] (setting [11]) it was 9,41±0,91 Pa/ml/s; in data set [7] (setting [12]) it was 10,10±0,94 Pa/ml/s; in [7] (setting [13]), 9,92±1.11 Pa/ml/s; in [7] (nach 10 mg i.v. (5 min after injection, before intratracheal ovalbumin provocation)), 8,07±0,93 Pa/ml/s. The “δ (Änderung des Beatmungswiderstands)” value in [7] (setting [10]) was 1,14±0,77 Pa/ml/s; in [7] (setting [11]), 1,34±0,96 Pa/ml/s; in data set [7] (setting [12]) it was 2,03±0,44 Pa/ml/s; in [7] (setting [13]), 1,85±0,64 Pa/ml/s. Besides, the “atmungsdämpfende Wirkung” value in [8] (in contrast to the reference substances) was “keine atmungsdämpfende Wirkung”. In [8] (side effects characteristic of Theophyllin), the “unerwünschte Nebenwirkungen auf das Zentralnervensystem und das Herz” value is on record as “nicht aufweist”. In addition, the Wirkungsmaximum in data set [4] was 28,2. Besides, in data set [4] (4 mg/kg intraduodenal, compared with Theophyllin), the “Dauer der Wirkung” value is “hielt längere Zeit an”. Besides, the rel.Wirkungsstärke in data set [4] (4 mg/kg intraduodenal) is on record as 1,79. Further, the EC50 in data set [5] was 3.31 µM. The same compound had a maximal effect (Emax) in data set [5] of 36%. Further, in “Water solubility”, the Wasserlöslichkeit entry is “mäßigen Wasserlöslichkeit”. For the same compound, in [9], the Resorption entry is reported as “ausgezeichnet und schnell resorbiert”.

Usually Emax stands for the maximal effect, on the per cent scale that the assay sets.
